# Assay results: patent US9353082B2, “Pharmaceutical compounds” (BIAL—PORTELA & CA, S.A., priority 2008, dated 2016)
# How the values were obtained:
# FAAH [1] = biological target: T1, FAAH (Rattus norvegicus, UniProt P97612); experiment: In vitro FAAH activity in rat brain membranes, 3H-AEA substrate, % of control; assay type: biochemical, Wistar rats; conditions: low value = strong inhibitor; for In Vitro FAAH activity, 100 nM: 100 nM test compound; for In Vitro FAAH activity, 10 uM: 10 uM test compound
# T1 construct: Frozen brains (without cerebellum) from Wistar rats were used; from tissue; host or cells: Wistar rat brain (without cerebellum), washed membrane pellets
# T1 sequence (P97612 1-579): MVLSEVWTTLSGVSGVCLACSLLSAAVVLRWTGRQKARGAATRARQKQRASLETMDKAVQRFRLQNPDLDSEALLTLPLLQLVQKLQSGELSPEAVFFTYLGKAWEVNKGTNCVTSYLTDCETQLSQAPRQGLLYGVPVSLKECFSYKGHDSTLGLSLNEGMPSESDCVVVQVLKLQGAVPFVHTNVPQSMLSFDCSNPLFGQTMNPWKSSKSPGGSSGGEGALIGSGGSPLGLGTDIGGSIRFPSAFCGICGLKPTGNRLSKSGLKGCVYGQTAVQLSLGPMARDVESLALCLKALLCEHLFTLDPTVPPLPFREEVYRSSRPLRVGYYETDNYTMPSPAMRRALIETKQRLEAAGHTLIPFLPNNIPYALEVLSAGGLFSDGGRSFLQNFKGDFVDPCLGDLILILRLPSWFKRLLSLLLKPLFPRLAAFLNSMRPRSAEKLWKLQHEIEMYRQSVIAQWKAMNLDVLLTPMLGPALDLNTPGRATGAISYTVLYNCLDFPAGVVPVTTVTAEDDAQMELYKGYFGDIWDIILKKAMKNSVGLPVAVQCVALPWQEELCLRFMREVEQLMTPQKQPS
# Summary of the method: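 Wistar rat brain membranes (5 μg protein) preincubated 15 min at 37 °C with compound at 10 μM or 0.1 μM (0.1% DMSO), then 2 μM AEA including 3H-AEA with 0.1% BSA, Tris pH 7.6, 10 min. 3H-ethanolamine counted after charcoal stop; % of no-compound control after blank subtraction.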
# FAAH [2] = biological target: T2, FAAH (Mus musculus, UniProt O08914); experiment: In vivo FAAH inhibition after oral dosing, remaining activity in brain homogenate (BRh, central nervous tissue); design: species or system NMRI mice; conditions: brain homogenate, 3 mg/kg, 8 h
# T2 construct: A fragment of liver, left lung lobe and brain without cerebellum were removed; from tissue; host or cells: male NMRI mice; brain (without cerebellum) and liver homogenates
# T2 sequence (O08914 1-579): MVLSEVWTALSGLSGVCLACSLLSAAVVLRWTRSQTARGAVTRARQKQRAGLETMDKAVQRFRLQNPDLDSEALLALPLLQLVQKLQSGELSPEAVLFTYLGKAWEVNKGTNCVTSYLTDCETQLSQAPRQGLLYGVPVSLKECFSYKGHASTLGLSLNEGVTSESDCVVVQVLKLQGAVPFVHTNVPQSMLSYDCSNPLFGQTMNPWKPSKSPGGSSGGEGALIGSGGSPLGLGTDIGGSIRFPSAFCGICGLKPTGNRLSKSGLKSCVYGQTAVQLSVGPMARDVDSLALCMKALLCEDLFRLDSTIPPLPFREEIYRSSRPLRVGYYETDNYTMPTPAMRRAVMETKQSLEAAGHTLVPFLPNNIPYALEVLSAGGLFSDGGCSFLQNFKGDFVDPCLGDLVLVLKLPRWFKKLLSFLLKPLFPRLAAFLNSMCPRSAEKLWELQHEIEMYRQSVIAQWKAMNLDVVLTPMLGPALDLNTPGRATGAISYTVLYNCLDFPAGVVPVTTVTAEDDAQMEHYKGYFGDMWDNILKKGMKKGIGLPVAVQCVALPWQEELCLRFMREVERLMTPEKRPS
# Summary of the method: (§1)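 Male NMRI mice, fasted overnight, got 30 or 3 mg/kg compound orally (0.5% CMC suspension or water) and were compared with vehicle controls. Brain (no cerebellum) and liver homogenates were incubated with 2 μM AEA plus 5 nM 3H-AEA at 37 °C, 10 min for brain and 7 min for liver. Remaining FAAH activity is % of vehicle after blank subtraction.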
# FAAH [3] = biological target: T2, FAAH; experiment: In vivo FAAH inhibition after oral dosing, remaining activity in liver homogenate (LVh, peripheral tissue); design: species or system NMRI mice; conditions: liver homogenate, 3 mg/kg, 8 h
# Summary of the method: as §1
SMILES,"In Vitro FAAH activity, 100 nM (FAAH [1])","In Vivo BRh 3 mg/kg 8 h, remaining FAAH activity (FAAH [2])","In Vivo LVh 3 mg/kg 8 h, remaining FAAH activity (FAAH [3])","In Vitro FAAH activity, 10 uM (FAAH [1])"
"CC1(C)COCN1C(=O)n1cnc(-c2ccc(Cl)cc2)c1 [Compound 186, (4-(4-chlorophenyl)-1H-imidazol-1-yl)(4,4-dimethyloxazolidin-3-yl)methanone]",96.5 % of control,78.7 % of control,37.7 % of control,
"CC1(C)COCN1C(=O)n1cnc(-c2ccc(Oc3ccc(C(N)=O)cc3)cc2)n1 [Compound 187, 4-(4-(1-(4,4-dimethyloxazolidine-3-carbonyl)-1H-1,2,4-triazol-3-yl)phenoxy)benzamide]",92.8 % of control,85.6 % of control,108.6 % of control,
"COc1ccc(-c2ncn(C(=O)N3COCC3(C)C)n2)cc1 [Compound 188, (4,4-dimethyloxazolidin-3-yl)(3-(4-methoxyphenyl)-1H-1,2,4-triazol-1-yl)methanone]",103.3 % of control,78.7 % of control,89 % of control,
"CC1(C)COCN1C(=O)n1cnc(-c2ccc(Cl)cc2)n1 [Compound 189, (3-(4-chlorophenyl)-1H-1,2,4-triazol-1-yl)(4,4-dimethyloxazolidin-3-yl)methanone]",98.5 % of control,105.9 % of control,87.6 % of control,
"CN(Cc1ccccc1)C(=O)n1cnc(-c2cccc3ccccc23)n1 [Compound 191, N-benzyl-N-methyl-3-(naphthalen-1-yl)-1H-1,2,4-triazole-1-carboxamide]",21 % of control,60 % of control,20.8 % of control,
"C[C@@H](c1ccccc1)N(C)C(=O)n1nnc2ccccc21 [Compound 195, (S)—N-methyl-N-(1-phenylethyl)-1H-benzo[d][1,2,3]triazole-1-carboxamide]",15.7 % of control,9.1 % of control,5.7 % of control,
"O=C(N1CCN(c2ccccc2)CC1)n1cnc(-c2cccc(-c3ccccc3)c2)c1 [Compound 196, (4-(biphenyl-3-yl)-1H-imidazol-1-yl)(4-phenylpiperazin-1-yl)methanone]",2.5 % of control,88.1 % of control,78.3 % of control,
"CN(C(=O)n1cnc(-c2ccc(N)cc2)c1)c1ccccc1 [Compound 199, 4-(4-aminophenyl)-N-methyl-N-phenyl-1H-imidazole-1-carboxamide]",89 % of control,45.9 % of control,19.7 % of control,
"CN(C(=O)n1cnc(-c2ccc(OCCN3CCNCC3)cc2)c1)c1ccccc1.Cl.Cl [Compound 203, N-methyl-N-phenyl-4-(4-(2-(piperazin-1-yl)ethoxy)phenyl)-1H-imidazole-1-carboxamide dihydrochloride]",93.5 % of control,101.8 % of control,64.3 % of control,
"NC(=O)c1ccc(Oc2cccc(-c3ncn(C(=O)N4CCN(c5ccccc5)CC4)n3)c2)cc1 [Compound 208, 4-(3-(1-(4-phenylpiperazine-1-carbonyl)-1H-1,2,4-triazol-3-yl)phenoxy)benzamide]",0.2 % of control,97.2 % of control,96.7 % of control,
"CC1(C)COCN1C(=O)n1cnc(-c2cccc(Oc3ccc(C(N)=O)cc3)c2)n1 [Compound 209, 4-(3-(1-(4,4-dimethyloxazolidine-3-carbonyl)-1H-1,2,4-triazol-3-yl)phenoxy)benzamide]",101.5 % of control,99.8 % of control,70.1 % of control,
"CC1(C)COCN1C(=O)n1cnc(-c2cccs2)n1 [Compound 213, (4,4-dimethyloxazolidin-3-yl)(3-(thiophen-2-yl)-1H-1,2,4-triazol-1-yl)methanone]",105.6 % of control,53.7 % of control,6.9 % of control,
"COc1ccc(-c2cn(C(=O)N3COCC3(C)C)cn2)cc1OC [Compound 216, (4-(3,4-dimethoxyphenyl)-1H-imidazol-1-yl)(4,4-dimethyloxazolidin-3-yl)methanone]",108.6 % of control,29.3 % of control,13.3 % of control,38.3 % of control
"COc1ccc(-c2cn(C(=O)N(C)C3CCCCC3)cn2)cc1OC [Compound 217, N-cyclohexyl-4-(3,4-dimethoxyphenyl)-N-methyl-1H-imidazole-1-carboxamide]",80.5 % of control,6 % of control,4.2 % of control,0 % of control
"CC1(C)COCN1C(=O)n1cnc2ccccc21 [Compound 219, (1H-benzo[d]imidazol-1-yl)(4,4-dimethyloxazolidin-3-yl)methanone]",111.6 % of control,86.8 % of control,89 % of control,50.6 % of control
"CC1(C)OCCN1C(=O)n1cnc(-c2ccccc2)c1 [Compound 220, (2,2-dimethyloxazolidin-3-yl)(4-phenyl-1H-imidazol-1-yl)methanone]",103.7 % of control,31.5 % of control,20 % of control,
"C[C@@H]1CCC[C@H](C)N1C(=O)n1cnc(-c2ccccc2)c1 [Compound 221, ((2R,6S)-2,6-dimethylpiperidin-1-yl)(4-phenyl-1H-imidazol-1-yl)methanone]",105.8 % of control,104.5 % of control,44.9 % of control,
"CN(C(=O)n1cnc2ccccc21)C1CCCCC1 [Compound 222, N-cyclohexyl-N-methyl-1H-benzo[d]imidazole-1-carboxamide]",102.9 % of control,111.5 % of control,59.2 % of control,
